Legend:
[1] = tested on: benzodiazepine receptor complex; details: cited from earlier work
conscious dogs = assay: Dose escalation safety study, cardiovascular and respiratory parameters after acute intravenous administration; details: acute intravenous, 3, 5 and 12 mg/kg
Method: To establish the safety of eszopiclone, a dose escalation study was carried out. Cardiovascular and respiratory parameters were evaluated in conscious dogs following acute intravenous administration of (R)-, (S)- or racemic zopiclone at three doses (3, 5 and 12 mg/kg).

mice [2] = assay: Antimuscarinic activity in vivo: mydriasis; details: maximum dose 100 mg/kg, p.o.
Method: (§1) Eszopiclone was evaluated for antimuscarinic activity in vivo.

mice [3] = assay: Antagonism of oxotremorine induced salivation; format: in vivo; details: doses up to 300 mg/kg, p.o.
Method: as §1

CN1CCN(C(=O)OC2c3nccnc3C(=O)N2c2ccc(Cl)cn2)CC1 (racemic) [racemic zopiclone, zopiclone]
binding to the benzodiazepine receptor complex [1]: binds to the benzodiazepine receptor complex | Blood gases and blood chemistries (pH, pCO2, pO2, hematocrit, and lactate) (conscious dogs): remained unaffected | cardiotoxicity by electrocardiogram (ECG) (conscious dogs): No evidence of cardiotoxicity | effect on blood pressure (conscious dogs): dose dependent, transient decreases | effect on heart rate (conscious dogs): compensatory increase | mydriasis (mice [2]): did not produce mydriasis | antagonism of oxotremorine induced salivation (mice [3]): neither (R)-, (S)-, nor racemic zopiclone significantly antagonized

Source: patent US7776858B2, “Methods of treatment of chronic pain using eszopiclone” (Sepracor Inc., priority 2004, dated 2010)
